The data set is described as follows: Human HepG2 cell viability assay in 384 well format. It counts as toxicity, cell-based. Set-up: dose 125 nL, time 70.5 hour; concentration not given beside the values. The note with it: HepG2 cells, read-out: Inhibition.

Consider `COCCNC(=O)[C@@H](C)[C@@H]1CCc2c(C)cc(OCC(=O)O)c(C)c2C1`, for which the cytotoxicity at 70.5 h is -6%. For `CC[C@H]1CN(S(=O)(=O)c2ccc(OC)cc2)CC[C@H]1CC(=O)O` the value was -9.14%; for `COCCOc1ccc(C(=O)N[C@@H]2CNCCC[C@H]2O)cc1`, -2.53%; for `Cn1ccnc1CN1CCOC[C@H]1c1nc(C(C)(C)C)co1`, -1.75%. In the case of `CN(C)c1ccc(-c2noc([C@@H]3CCCN3)n2)cn1`, the cytotoxicity at 70.5 h is 6.36%.

Consider `COCCNc1ccc(-c2noc([C@@H]3CCCN3)n2)cn1`, for which the cytotoxicity at 70.5 h turned out to be 6.15%. For `CN1[C@@H](CCC(=O)NCc2ccc(F)cc2)CNC(=O)[C@H]2NCC[C@H]21` the value was -2.11%; for `c1ccc(-c2nnc([C@H]3CCN(C4CCOCC4)C3)o2)cc1`, -0.562%. Consider `Cn1cncc1-c1nnc([C@H]2CCN(CC3CCCCC3)C2)o1`, for which the cytotoxicity at 70.5 h is -1.28%. Take `c1ccc(Cc2nnc([C@H]3CCN(C4CCCCC4)C3)o2)cc1`: the cytotoxicity at 70.5 h turned out to be 1.09%. In the case of `NC(=O)CN1C(=O)CO[C@H]2CN(Cc3ccc(C(F)(F)F)cc3)C[C@H]21`, the cytotoxicity at 70.5 h was -1.74%.

Take `COCCN1C(=O)CO[C@H]2CN(CCCc3ccccc3)C[C@H]21`: the cytotoxicity at 70.5 h was -1.96%. As for `Clc1ccc(-c2c[nH]c([C@@H]3COCCN3)n2)cc1`, the cytotoxicity at 70.5 h is -0.826%.

As to `CC(=O)N1CCC(N2CCOC[C@H]2c2nc(C(C)(C)C)c[nH]2)CC1`, the cytotoxicity at 70.5 h was -2.09%.

In the case of `COc1ccccc1C(=O)Nc1ccc([C@@H](O)[C@H]2COCC(=O)N2)cc1`, the cytotoxicity at 70.5 h was -4.28%. Turning to `N#Cc1cccc(C(=O)Nc2ccc([C@@H](O)[C@H]3COCC(=O)N3)cc2)c1`, the cytotoxicity at 70.5 h is -9.14%.

As for `Fc1ccc(CN2CCOC[C@H](Oc3cccnc3)C2)cc1`, the cytotoxicity at 70.5 h came out at 10.5%. For `CNC(=O)C(C)(C)N1CCC[C@H]1C(=O)NC1CC1` the value was -9.14%; for `Oc1ccccc1CN1C[C@H](O)C[C@H]1c1nc(Cc2ccccc2)no1`, -6.19%; for `CN1C[C@@H](NC(=O)C2CC2)C[C@H]1c1nc(-c2cnccn2)no1`, 1.69%. For `CCN(CC)C1(Cc2cc(CC(C)C)on2)COC1` the value was 0.19%; for `O=C1CO[C@H]2CN(S(=O)(=O)c3ccccc3)C[C@H]2N1Cc1ccccc1`, -9.3%. On to `Cc1ccccc1CN1C[C@@H]2OCC(=O)N(CC(N)=O)[C@@H]2C1`, for which the cytotoxicity at 70.5 h is -0.694%. `Cn1ccnc1CN1C[C@@H](F)[C@@H](OCc2nc3cnccc3[nH]2)C1`: the cytotoxicity at 70.5 h turned out to be 13.1%. Regarding `CN(C)[C@@H]1CO[C@H](CNC(=O)CC(C)(C)C)[C@H]1O`, the cytotoxicity at 70.5 h was -0.485%.

In the case of `O=C(NC[C@H]1OC[C@@H](NC2CCC(F)(F)CC2)[C@@H]1O)N1CCOCC1`, the cytotoxicity at 70.5 h is -6.74%. To `O=C1N(Cc2ccccn2)C[C@H]2CN(S(=O)(=O)c3ccccc3)CCN12` belongs -0.174%. Turning to `Cc1nc(C)c(CN2CCOC[C@H](Oc3ccc(S(C)(=O)=O)cc3)C2)s1`, the cytotoxicity at 70.5 h was found to be 0.478%. As for `Cc1ccc(CN2CC[C@H](c3nnc(COc4ccc(F)cc4)o3)C2)o1`, the cytotoxicity at 70.5 h is -6.96%. In the case of `O=C(NCc1ccccc1)[C@@H]1Cc2[nH]cnc2CN1CC1CC1`, the cytotoxicity at 70.5 h was -3.43%.

With `CN1C[C@@H](NC(=O)c2ccccc2)C[C@H]1c1nc(-c2cnccn2)no1`, the cytotoxicity at 70.5 h came to 10.6%.

Regarding `Cc1noc([C@@H]2C[C@H](NC(=O)C3CCCCC3)CN2C)n1`, the cytotoxicity at 70.5 h was found to be 0.213%. As to `COCC(=O)Nc1ccc(-c2noc([C@@H]3CCCN3CC(C)C)n2)cn1`, the cytotoxicity at 70.5 h was found to be 10.2%.

As to `CC(C)N1CC[C@H](c2nc3ccc(C(F)(F)F)cc3[nH]2)C1`, the cytotoxicity at 70.5 h was -5.84%. Regarding `COc1ccc2[nH]c(C[C@@H]3C[C@@H](C(C)C)[C@H](CN(C)C)C=C3C)nc2c1`, the cytotoxicity at 70.5 h was -3.19%. To `CN1CCC(N[C@@H]2CO[C@H](CNC(=O)C3CCCC3)[C@H]2O)CC1` belongs -3.54%. Regarding `CC(=O)N1CCN2C(=O)N(Cc3ccc(F)cc3)C[C@H]2C1`, the cytotoxicity at 70.5 h was -13%. On to `O=C(c1ccno1)N1CCN2C(=O)N(Cc3ccc(F)cc3)C[C@H]2C1`, for which the cytotoxicity at 70.5 h was -8.27%. On to `O=C1N(Cc2ccccn2)C[C@H]2CN(C3CCC3)CCN12`, for which the cytotoxicity at 70.5 h is 2.38%. Consider `O=S(=O)(c1ccc(F)cc1)N1CCOC[C@H](Oc2cnccn2)C1`, for which the cytotoxicity at 70.5 h amounted to 12.5%. For `CO[C@H]1COCCN(C(=O)c2ccno2)C1` the value was -1.71%; for `CO[C@H]1COCCN(C(=O)c2cc(C)oc2C(F)(F)F)C1`, -3.96%. Consider `CNC(=O)[C@@H](C1CCCCC1)N1CCC[C@H]1C(=O)NC1CC1`, for which the cytotoxicity at 70.5 h is -20.1%. Consider `CCNC(=O)O[C@H]1COCCN(c2nc3ccccc3s2)C1`, for which the cytotoxicity at 70.5 h is -2.95%.

On to `Cc1cccc(CNC[C@H]2Cn3cc(-c4ccccc4)nc3CO2)n1`, for which the cytotoxicity at 70.5 h is -7.12%.

Turning to `CN1CCC(N2CCOC[C@H](OCC(=O)N(C)C)C2)CC1`, the cytotoxicity at 70.5 h came to 0.483%. As to `CC[C@H]1CN2CC[C@H]1C[C@@H]2CNCc1ccc2c(c1)OCO2`, the cytotoxicity at 70.5 h was -5.69%.

Turning to `O=C(c1cc(CC2(NC3CCCCC3)COC2)no1)N1CCCCC1`, the cytotoxicity at 70.5 h was found to be 11.7%. As to `CC(C)CS(=O)(=O)Nc1ccc([C@H]2OCC(=O)N[C@@H]2CO)cc1`, the cytotoxicity at 70.5 h is 0.34%. Take `O=C(NC[C@H]1OC[C@@H](NC(=O)C2CCCC2)[C@@H]1O)c1ccncc1`: the cytotoxicity at 70.5 h was 13.7%.

Regarding `CC(C)N1CCN2C(=O)N(C3CCCCC3)C[C@H]2C1`, the cytotoxicity at 70.5 h stood at 0.287%. For `COc1ccc(CNC[C@H]2Cn3ccnc3CO2)cn1` the value was -2.5%. Turning to `O=C(O)C[C@@H]1CCN(C(=O)c2cccs2)C[C@@H]1CCN1CCCCC1`, the cytotoxicity at 70.5 h is -3.9%. For `COCCN1CCN(C(=O)C[C@@H]2C[C@@H](C(C)C)[C@H](CO)C=C2C)CC1` the value was -3.05%; for `CC[C@H]1CN(C(=O)c2cccnc2)CC[C@H]1CC(=O)NCCOC`, -1.87%; for `CC(C)(C)c1cn(C[C@H]2CC3CCN2C[C@@H]3C(=O)N2CCOCC2)nn1` (stereo partly drawn), 2.28%. For `COCc1cn(C[C@H]2CC3CCN2C[C@@H]3C(=O)Nc2ccccc2)nn1` (stereo partly drawn), the cytotoxicity at 70.5 h is -6.64%.

Consider `O=C(Nc1ccccc1)[C@H]1CN2CCC1C[C@@H]2Cn1cc(CO)nn1` (stereo partly drawn), for which the cytotoxicity at 70.5 h is -9.02%.

On to `CC[C@H]1CN2CC[C@H]1C[C@@H]2CNC(=O)c1ccco1`, for which the cytotoxicity at 70.5 h is -1.78%.

On to `CC[C@H]1CN2CC[C@H]1C[C@@H]2CNC(=O)Nc1cccc(C#N)c1`, for which the cytotoxicity at 70.5 h stood at 13.7%. For `CC[C@H]1CN2CC[C@H]1C[C@@H]2CNC(=O)NC1CCCCC1` the value was 4.29%; for `CC[C@H]1CN(C(=O)C2CC2)CC[C@H]1CC(=O)NCCN1CCOCC1`, -0.373%. On to `COCC(=O)N1CCN(C(C)=O)C[C@@H]1C(=O)OC`, for which the cytotoxicity at 70.5 h was 12.2%. `O=C(NC[C@H]1C[C@@H]2CCN1C[C@@H]2CN1CCCCC1)Nc1ccsc1`: the cytotoxicity at 70.5 h was -16%. On to `O=C(NC[C@H]1C[C@@H]2CCN1C[C@@H]2CN1CCCCC1)c1ccco1`, for which the cytotoxicity at 70.5 h amounted to 0.157%. As for `COc1ccc(C2=CNC(C(F)(F)F)=CC2N)cc1` (stereo not drawn), the cytotoxicity at 70.5 h is -0.00247%. Regarding `CC(C)c1cc(CN2CCC(N)CC2)no1`, the cytotoxicity at 70.5 h was -6.06%.

Take `Cc1nn(C)cc1-c1cc(C(F)F)n2nc(CCC(=O)O)nc2n1`: the cytotoxicity at 70.5 h was -0.99%. Consider `CCOCn1cc(NC(=O)C2CCN(S(C)(=O)=O)CC2)cn1`, for which the cytotoxicity at 70.5 h was -2.16%. As for `CS(=O)(=O)N1CCCC(C(=O)Nc2cnn(Cc3ccc(Cl)cc3)c2)C1` (stereo not drawn), the cytotoxicity at 70.5 h amounted to 0.541%. To `CCc1nc(C)cn1C(=O)Nc1ccccc1` belongs 2.98%; to `CCc1nc(C)cn1C(=O)Nc1ccc(F)cc1`, 5.48%; to `O=C(O)Cc1nc2nccc(-c3ccc(F)cc3)n2n1`, 17.4%. Regarding `N#Cc1cc2c(nc1O)CCCCC2`, the cytotoxicity at 70.5 h was -2.17%. To `Cn1c(=O)c2cc(C(=O)NCCOc3ccccc3)ccc2n(C)c1=O` belongs 24.3%; to `Cn1c(=O)c2cc(C(=O)NCc3ccccn3)ccc2n(C)c1=O`, -4.37%. As for `CC(CC#N)n1ccc(C(F)(F)F)n1` (stereo not drawn), the cytotoxicity at 70.5 h was -0.316%.

As to `CCC(CC#N)n1ccc(C(F)(F)F)n1` (stereo not drawn), the cytotoxicity at 70.5 h was 22.2%. Regarding `Cc1nn(C)cc1-c1cc(C(F)(F)F)n(CCCN)n1`, the cytotoxicity at 70.5 h is -0.484%.

Take `Cc1cc(C(F)(F)F)nn1CCCNC(=O)C1CCCO1` (stereo not drawn): the cytotoxicity at 70.5 h is 16.3%. In the case of `COC(=O)N1CC(C)=C(C)CN1C(=O)Nc1cccc(Cl)c1`, the cytotoxicity at 70.5 h is 0.501%.

As for `CCOC(=O)N1CC(C)=C(C)CN1C(=O)Nc1ccc(Cl)c(Cl)c1`, the cytotoxicity at 70.5 h was 6.17%. `Cc1cc(Br)c(O)c(-c2nc(N3CCOCC3)sc2C)c1`: the cytotoxicity at 70.5 h stood at 5.07%. `NC(=O)c1c[nH]nc1NC(=O)c1cccc(Cl)c1`: the cytotoxicity at 70.5 h is -3.76%.

In the case of `COc1ccccc1-c1cc(C(F)(F)F)c2c(C)nn(CC(=O)O)c2n1`, the cytotoxicity at 70.5 h is 18.1%. As for `CCc1cc(C(F)(F)F)c2c(C)nn(CC(=O)O)c2n1`, the cytotoxicity at 70.5 h is 4.66%. In the case of `CCn1ncc(Br)c1CN(C)S(=O)(=O)c1ccc(C)cc1`, the cytotoxicity at 70.5 h amounted to 8.37%.

In the case of `CNC(=O)c1cccc(C2CNCCN2C)c1` (stereo not drawn), the cytotoxicity at 70.5 h was found to be 19.9%. `CC(C)N1CCC(Cc2cc(-c3ccccc3C(=O)O)ncn2)CC1`: the cytotoxicity at 70.5 h is 16.5%. With `CNC(=O)[C@@H](c1ccccc1F)N1CCC[C@H]1C(=O)NC1CC1`, the cytotoxicity at 70.5 h is -4.55%. As for `CNC(=O)[C@@H](c1ccccc1)N1CCC[C@H]1C(=O)NC1CCCCC1`, the cytotoxicity at 70.5 h was -2.47%. For `CNC(=O)[C@@H](c1ccccc1)N1CCC[C@H]1C(=O)NCc1ccccn1` the value was -6.43%. To `O[C@@H]1C[C@@](CNCc2cccc(Cl)c2)(COc2cccnc2)C[C@@H]1O` belongs -2.94%.

The record behind these values is ChEMBL document CHEMBL3507680, “University of Dundee, Gates Library screen for HepG2 cell viability”.
